Results: patent US20260001928A1 (CORTERIA PHARMACEUTICALS, priority 2022, published 2026)
*1 amine or outer side, *2 acyl side, *3 side chain or, on linkers, in order; H or OH if unused. Where a SMILES comes first, the peptide text is derived from it. Side-chain parts run from the residue outwards. [ ]: non-standard residue; d: D form. The star is where a group is joined. C18 diacid = O=C(O)CCCCCCCCCCCCCCCCC(=O)*; C16 diacid = O=C(O)CCCCCCCCCCCCCCC(=O)*; γGlu = O=C(O)[C@H](CCC(=O)[*:2])N[*:1]; NMeI = CC[C@H](C)[C@H](NC)C(=O)O; AEEA = NCCOCCOCC(=O)O; Aib = CC(C)(N)C(=O)O

Target: T1, CFR1R receptor (Homo sapiens, UniProt P34998)
T1 construct: host or cells: CHO-K1 (clone 2)
T1 sequence (P34998 24-415): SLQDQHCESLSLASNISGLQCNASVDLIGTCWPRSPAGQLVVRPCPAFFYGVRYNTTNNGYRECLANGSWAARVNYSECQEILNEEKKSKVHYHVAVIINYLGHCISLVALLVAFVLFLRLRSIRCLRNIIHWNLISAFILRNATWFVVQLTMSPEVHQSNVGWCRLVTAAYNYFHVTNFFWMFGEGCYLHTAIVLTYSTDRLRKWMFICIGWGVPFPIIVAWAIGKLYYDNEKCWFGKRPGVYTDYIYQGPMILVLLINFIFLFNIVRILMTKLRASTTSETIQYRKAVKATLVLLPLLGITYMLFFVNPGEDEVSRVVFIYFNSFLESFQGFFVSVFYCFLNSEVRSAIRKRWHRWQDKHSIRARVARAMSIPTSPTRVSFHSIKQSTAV
Assay: Activity at anti-target CFR1R receptor, cAMP assay in CRF1R-overexpression CHO-K1 cells
Type: cell-based
Conditions: 100% = Sauvagine at 100 nM
Description: Assessment of activity at anti-target CFR1R receptor is done using the same procedure as the one described for the TeloHEAC cell line. The CRF1R-overexpression CHO-K1 cell line clone 2 was purchased from PerkinElmer. Cells were grown in a 10 cm dish at 37° C./5% CO2 in medium (F12 (Hams)/10% FBS/400 μg/ml G418) to near confluence. At that stage, cells were harvested, resuspended to 10 million/mL in culture medium without G418 and with 10% DMSO. 1 mL vial aliquots were slowly frozen to −80° C. in isopropanol and then transferred in liquid nitrogen for storage. These vials were used to run the experiment following the procedure reported in the previous paragraph, except for the compound used in the control well to define the 100% activation (Sauvagine at 100 nM) and the cell density (final cell density: 4000 cells/well)

In the case of CC[C@H](C)[C@H](NC(C)=O)C(=O)N[C@H](C(=O)N[C@@H](CC(C)C)C(=O)N[C@@H](CO)C(=O)N[C@@H](CC(C)C)C(=O)N[C@@H](CC(=O)O)C(=O)N[C@@H](C(=O)N1CCC[C@H]1C(=O)N[C@H](C(=O)N[C@@H](CCCCN)C(=O)N[C@@H](CC(C)C)C(=O)N[C@@H](CCCCNC(=O)CC[C@H](NC(=O)CCCCCCCCCCCCCCC(=O)O)C(=O)O)C(=O)N[C@@H](CCC(N)=O)C(=O)N[C@H](C(=O)N[C@@H](CC(C)C)C(=O)N[C@@H](CC(C)C)C(=O)N[C@@H](CCCCN)C(=O)N[C@@H](CCC(N)=O)C(=O)N[C@@H](CCC(=O)O)C(=O)N[C@@H](CCCNC(=N)N)C(=O)N[C@@H](CCC(N)=O)C(=O)N[C@@H](CCCCN)C(=O)N[C@@H](CCCCN)C(=O)N[C@@H](CCC(N)=O)C(=O)N[C@@H](CCCNC(=N)N)C(=O)N[C@@H](CCC(=O)O)C(=O)N[C@@H](CCC(N)=O)C(=O)N[C@@H](C)C(=O)N[C@@H](CCC(=O)O)C(=O)N[C@@H](CCCCN)C(=O)N[C@@H](CC(N)=O)C(=O)N[C@@H](CCCCN)C(=O)N[C@@H](CCC(N)=O)C(=O)N[C@H](C(=O)N[C@@H](CC(C)C)C(=O)N[C@@H](CCC(=O)O)C(=O)N[C@@H](CCC(N)=O)C(=O)N[C@H](C(N)=O)C(C)C)[C@@H](C)CC)[C@@H](C)CC)[C@@H](C)CC)C(C)C)C(C)C [SEQ ID No. 2, reference compound] (Ac-IVLSLD[dV]PIKLK([γGlu-C16 diacid])QILLKQERQKKQREQAEKNKQILEQV-NH2), the “Emax (% I)” value is reported as 4 % I.
In the case of CC[C@H](C)[C@H](NC(C)=O)C(=O)N[C@H](C(=O)N[C@@H](CC(C)C)C(=O)N[C@@H](CO)C(=O)N[C@@H](CC(C)C)C(=O)N[C@@H](CC(=O)O)C(=O)N[C@@H](C(=O)N1CCC[C@H]1C(=O)N[C@H](C(=O)N[C@@H](CCCCN)C(=O)N[C@@H](CC(C)C)C(=O)N[C@@H](CCCCNC(=O)CC[C@H](NC(=O)CCCCCCCCCCCCCCCCC(=O)O)C(=O)O)C(=O)N[C@@H](CCCCN)C(=O)N[C@H](C(=O)N[C@@H](CC(C)C)C(=O)N[C@@H](CC(C)C)C(=O)N[C@@H](CCC(=O)O)C(=O)N[C@@H](CCC(N)=O)C(=O)N[C@@H](CCC(=O)O)C(=O)N[C@@H](CCCCN)C(=O)N[C@@H](CCC(N)=O)C(=O)N[C@@H](CCCCN)C(=O)N[C@@H](CCCCN)C(=O)N[C@@H](CCC(N)=O)C(=O)N[C@@H](CCCNC(=N)N)C(=O)N[C@@H](CCC(=O)O)C(=O)N[C@@H](CCC(N)=O)C(=O)N[C@@H](C)C(=O)N[C@@H](CCC(=O)O)C(=O)N[C@H](C(=O)N[C@@H](CC(N)=O)C(=O)N[C@@H](CCC(=O)O)C(=O)N[C@@H](CCC(N)=O)C(=O)N[C@H](C(=O)N[C@@H](CC(C)C)C(=O)N[C@@H](C)C(=O)N[C@@H](CCC(N)=O)C(=O)N[C@H](C(N)=O)C(C)C)[C@@H](C)CC)[C@@H](C)O)[C@@H](C)CC)[C@@H](C)CC)C(C)C)C(C)C [SEQ ID No. 130, reference compound] (Ac-IVLSLD[dV]PIKLK([γGlu-C18 diacid])KILLEQEKQKKQREQAETNEQILAQV-NH2), the “Emax (% I)” value (listed as 13) is reported as 24 % I.
For CC[C@H](C)[C@H](NC)C(=O)N[C@H](C(=O)N[C@@H](CC(C)C)C(=O)N[C@@H](CO)C(=O)N[C@@H](CC(C)C)C(=O)N[C@@H](CC(=O)O)C(=O)N[C@@H](C(=O)N1CCC[C@H]1C(=O)N[C@H](C(=O)N[C@@H](CCCCN)C(=O)N[C@@H](CC(C)C)C(=O)N[C@@H](CCCCNC(=O)CC[C@H](NC(=O)CCCCCCCCCCCCCCCCC(=O)O)C(=O)O)C(=O)N[C@@H](CCCCN)C(=O)N[C@H](C(=O)N[C@@H](CC(C)C)C(=O)N[C@@H](CC(C)C)C(=O)N[C@@H](CCC(=O)O)C(=O)N[C@@H](CCC(N)=O)C(=O)N[C@@H](CCC(=O)O)C(=O)N[C@@H](CCCCN)C(=O)N[C@@H](CCC(N)=O)C(=O)N[C@@H](CCCCN)C(=O)N[C@@H](CCCCN)C(=O)N[C@@H](CCC(N)=O)C(=O)N[C@@H](CCCNC(=N)N)C(=O)N[C@@H](CCC(=O)O)C(=O)N[C@@H](CCC(N)=O)C(=O)N[C@@H](C)C(=O)N[C@@H](CCC(=O)O)C(=O)N[C@H](C(=O)N[C@@H](CC(N)=O)C(=O)N[C@@H](CCC(=O)O)C(=O)N[C@@H](CCC(N)=O)C(=O)N[C@H](C(=O)N[C@@H](CC(C)C)C(=O)N[C@@H](C)C(=O)N[C@@H](CCC(N)=O)C(=O)N[C@H](C(N)=O)C(C)C)[C@@H](C)CC)[C@@H](C)O)[C@@H](C)CC)[C@@H](C)CC)C(C)C)C(C)C [SEQ ID No. 142, reference compound] (H-[NMeI]VLSLD[dV]PIKLK([γGlu-C18 diacid])KILLEQEKQKKQREQAETNEQILAQV-NH2), the “Emax (% I)” value (listed as 14) was 24 % I.
For CC[C@H](C)[C@H](N)C(=O)N[C@H](C(=O)N[C@@H](CC(C)C)C(=O)N[C@@H](CO)C(=O)N[C@@H](CC(C)C)C(=O)N[C@@H](CC(=O)O)C(=O)N[C@@H](C(=O)N1CCC[C@H]1C(=O)N[C@H](C(=O)N[C@@H](CCCCN)C(=O)N[C@@H](CC(C)C)C(=O)N[C@@H](CCCCNC(=O)COCCOCCNC(=O)COCCOCCNC(=O)CC[C@H](NC(=O)CCCCCCCCCCCCCCC(=O)O)C(=O)O)C(=O)N[C@@H](CCC(N)=O)C(=O)N[C@H](C(=O)N[C@@H](CC(C)C)C(=O)N[C@@H](CC(C)C)C(=O)N[C@@H](CCCCN)C(=O)N[C@@H](CCC(N)=O)C(=O)N[C@@H](CCC(=O)O)C(=O)N[C@@H](CCCNC(=N)N)C(=O)N[C@@H](CCC(N)=O)C(=O)N[C@@H](CCCCN)C(=O)N[C@@H](CCCCN)C(=O)N[C@@H](CCC(N)=O)C(=O)N[C@@H](CCCNC(=N)N)C(=O)N[C@@H](CCC(=O)O)C(=O)N[C@@H](CCC(N)=O)C(=O)N[C@@H](C)C(=O)N[C@@H](CCC(=O)O)C(=O)N[C@@H](CCCCN)C(=O)N[C@@H](CC(N)=O)C(=O)N[C@@H](CCCCN)C(=O)N[C@@H](CCC(N)=O)C(=O)N[C@H](C(=O)N[C@@H](CC(C)C)C(=O)N[C@@H](CCC(=O)O)C(=O)N[C@@H](CCC(N)=O)C(=O)N[C@H](C(N)=O)C(C)C)[C@@H](C)CC)[C@@H](C)CC)[C@@H](C)CC)C(C)C)C(C)C [SEQ ID No. 148, reference compound] (H-IVLSLD[dV]PIKLK([AEEA-AEEA-γGlu-C16 diacid])QILLKQERQKKQREQAEKNKQILEQV-NH2), the “Emax (% I)” value (listed as 2) was 63 % I.
CC[C@H](C)[C@H](N)C(=O)N[C@H](C(=O)N[C@@H](CC(C)C)C(=O)N[C@@H](CO)C(=O)N[C@@H](CC(C)C)C(=O)N[C@@H](CC(=O)O)C(=O)N[C@H](C(=O)N1CCC[C@H]1C(=O)N[C@H](C(=O)N[C@@H](CCCCN)C(=O)N[C@@H](CC(C)C)C(=O)N[C@@H](CCCCNC(=O)COCCOCCNC(=O)COCCOCCNC(=O)CC[C@H](NC(=O)CC[C@H](NC(=O)CCCCCCCCCCCCCCCCC(=O)O)C(=O)O)C(=O)O)C(=O)N[C@@H](CCC(N)=O)C(=O)NC(C)(C)C(=O)N[C@@H](CC(C)C)C(=O)N[C@@H](CC(C)C)C(=O)N[C@@H](CCCCN)C(=O)N[C@@H](CCC(N)=O)C(=O)N[C@@H](CCC(=O)O)C(=O)N[C@@H](CCCNC(=N)N)C(=O)N[C@@H](CCC(N)=O)C(=O)N[C@@H](CCCCN)C(=O)N[C@@H](CCCCN)C(=O)N[C@@H](CCC(N)=O)C(=O)N[C@@H](CCCNC(=N)N)C(=O)N[C@@H](CCC(=O)O)C(=O)N[C@@H](CCC(N)=O)C(=O)N[C@@H](C)C(=O)N[C@@H](CCC(=O)O)C(=O)N[C@@H](CCCCN)C(=O)N[C@@H](CC(N)=O)C(=O)NC(C)(C)C(=O)N[C@@H](CCC(N)=O)C(=O)N[C@H](C(=O)N[C@@H](CC(C)C)C(=O)N[C@@H](CCC(=O)O)C(=O)N[C@@H](CCC(N)=O)C(=O)N[C@H](C(N)=O)C(C)C)[C@@H](C)CC)[C@@H](C)CC)C(C)C)C(C)C [compound 25] (H-IVLSLDVPIKLK([AEEA-AEEA-γGlu-γGlu-C18 diacid])Q[Aib]LLKQERQKKQREQAEKN[Aib]QILEQV-NH2) was tested, and the “Emax (% I)” value was 6 % I.
